{
  "source": "patent US11298369B2",
  "about": "“Composition and uses thereof” (Progen PG500 Series Pty Ltd, priority 2016, dated 2022)",
  "key": {"advanced solid tumours": {"tested_on": "advanced solid tumours", "details": "cited from earlier work"}, "4T1.2 tumours": {"tested_on": "4T1.2 tumours", "experiment": "4T1.2 tumour model: tumour growth inhibition", "assay_type": "in vivo, Balb/c mice", "details": "day 18, PG545 15 mg/kg weekly, antibody 200 μg intraperitoneally days 1, 4, 8, 11, 15", "experimental": "Female Balb/c mice (Age 8 weeks; Walter and Eliza Hall Institute of Medical Research (WEHI), Victoria Australia) were inoculated in the intramammary fatpad with 1×10^5 4T1.2 cells in phosphate buffered saline. 4T1.2 is a mouse mammary tumour model.\nThe experiment was ended on day 18 or earlier if an ethical endpoint was met. Blood was collected via cardiac bleed and serum was prepared and frozen at −80° C.\nThe percentage tumour growth inhibition was determined according to the following formula: 100×(1−ΔT/ΔC) where ΔC and ΔT were calculated by subtracting the mean tumour volume in each group on day 1 of treatment from the mean tumour volume on the day of analysis. Statistical analysis of the in vivo data was performed using Graph Pad Prism Version 6.0 (Graph Pad La Jolla, Calif.). An ANOVA analysis was performed followed by Dunnett's post hoc test to compare the tumour growth in the treated groups to the vehicle control."}, "[1]": {"tested_on": "tumour-associated macrophages (TAMs) and myeloid-derived suppressor cells (MDSCs)", "details": "preclinical pancreatic cancer models, chemically-induced skin cancer model; cited from earlier work"}, "[2]": {"details": "mouse, in vivo, 20 mg/kg", "experimental": "Mice were weighed and tumours measured 2-3 times weekly using electronic callipers. Tumour volume (mm^3) was calculated as length (mm)/2×width (mm)^2. One week following implantation mice with similar sized tumours (mean tumour volume 56 mm^3) were randomised into 4 groups of 6 animals (Day 1). Treatment groups were saline+control antibody, PG545+control antibody, saline+anti-PD-1 and PG545+anti-PD-1.\n[…] Mice received a small dish containing a food supplement (Ensure mixed with food dust) daily.\nIn FIG. 1, the data represent the mean percent weight change from day 1 for each group; bars are standard error of the mean (SEM). […] It was decided to harvest the experiment on day 18."}, "dendritic cell (DC)": {"tested_on": "dendritic cell (DC)", "details": "cited from earlier work"}},
  "data": [
    {"smiles": "CC(C)CCC[C@@H](C)[C@H]1CC[C@H]2[C@@H]3CC[C@H]4C[C@@H](O[C@@H]5O[C@H](COS(=O)(=O)[O-])[C@@H](O[C@H]6O[C@H](COS(=O)(=O)[O-])[C@@H](O[C@H]7O[C@H](COS(=O)(=O)[O-])[C@@H](O[C@H]8O[C@H](COS(=O)(=O)[O-])[C@@H](OS(=O)(=O)[O-])[C@H](OS(=O)(=O)[O-])[C@H]8OS(=O)(=O)[O-])[C@H](OS(=O)(=O)[O-])[C@H]7OS(=O)(=O)[O-])[C@H](OS(=O)(=O)[O-])[C@H]6OS(=O)(=O)[O-])[C@H](OS(=O)(=O)[O-])[C@H]5OS(=O)(=O)[O-])CC[C@]4(C)[C@H]3CC[C@]12C.[Na+].[Na+].[Na+].[Na+].[Na+].[Na+].[Na+].[Na+].[Na+].[Na+].[Na+].[Na+].[Na+]", "note": "[PG545, 3β,5α-Cholestanyl 2,3,4,6-tetra-O-sodium sulfonato-α-D-glucopyranosyl-(1→4)-2,3,6-tri-O-sodium sulfonato-α-D-glucopyranosyl-(1→4)-2,3,6-tri-O-sodium sulfonato-α-D-glucopyranosyl-(1→4)-2,3,6-tri-O-sodium sulfonato-β-D-glucopyranoside]", "values": [
      {"measurement": "Reductions in tumour size", "setting": "advanced solid tumours; PG545 monotherapy", "result": "did not lead to reductions in tumour size"},
      {"measurement": "Maximum tolerated dose", "setting": "advanced solid tumours; once weekly IV infusion, patients with advanced solid tumours", "result": 100, "unit": "mg"},
      {"measurement": "Tumour growth inhibition (% TGI)", "setting": "4T1.2 tumours", "result": 68, "unit": "%"},
      {"measurement": "TAMs and MDSCs within the tumour microenvironment", "setting": "[1]", "result": "depletion"},
      {"measurement": "Tolerability (maximum tolerated dose issues)", "setting": "[2]", "result": "body weight issues"},
      {"measurement": "Activation of T cells", "setting": "dendritic cell (DC); PG545 alone, naïve mice and mice bearing A20 lymphoma tumours", "result": "does not activate T cells"},
      {"measurement": "Activation of NK cells", "setting": "dendritic cell (DC); via effect on DCs", "result": "potent activation"}
    ]}
  ]
}
